Measurements published in paper PMC6213900, “Design, Synthesis, and Cytotoxic Analysis of Novel Hederagenin–Pyrazine Derivatives Based on Partial Least Squares Discriminant Analysis” (International Journal of Molecular Sciences, 2018).

Legend:
[1] = test system: A549 (human non-small-cell lung cancer); assay: MTT cytotoxicity assay, A549; format: cell-based; details: Homo sapiens, A549, 72 h treatment, read-out: Half Maximal Inhibitory Concentration (IC50) A549
Description: (§1) The cytotoxicity of hederagenin derivatives in vitro was evaluated on three tumor cell lines (A549: human non-small-cell lung cancer; MCF-7: human mammary cancer; HepG2: human hepatocellular carcinoma) using the 3-(4,5-dimethylthiazol-2-yl)-2,5-diphenyltetrazolium bromide (MTT) assay. In addition, their toxicity evaluations were tested on H9c2 (murine heart myoblast) and MDCK (Madin–Darby canine kidney) cells. MCF-7, A549, HepG2, H9c2, and MDCK cells were obtained from the Chinese Academy of Medical Sciences and Peking Union Medical College. All of the cell lines were maintained in Dulbecco’s modified Eagle medium (DMEM) supplemented with 1% (v/v) penicillin/streptomycin and 10% (v/v) fetal bovine serum (FBS; Thermo Technologies, New York, NY, USA) under a humidified atmosphere containing 5% CO2 at 37 °C. The stock solutions of He derivatives were dissolved in dimethyl sulfoxide (DMSO; Sigma, St. Louis, MO, USA) and added at various concentrations to the cell culture. Cellular morphologies were observed using an inverted fluorescence microscope (Olympus IX71, Tokyo, Japan), a plate reader (BIORAD 550 spectrophotometer, Bio-rad Life Science Development Ltd., Beijing, China), and a Canton 2 flow cytometer (BD, New York, NY, USA). The antitumor activity of these compounds were evaluated on MCF-7, A549, HepG2, MDCK, and H9c2 cell lines using the MTT assay. Cells at a density of 3 × 10^3 cells/well were plated in a 96-multiwell plate in DMEM containing 10% FBS for 24 h at 37 °C with 5% CO2. Then, cells were treated for 72 h with the required concentrations (3.125, 6.25, 12.5, 25, or 50 μM) of the compounds and reference drugs (He and DDP) dissolved with the vehicle DMSO. After that, the culture substrate was replaced with 200 μL of DMEM containing 20 μL of MTT solution at 5 mg/mL and incubated for 4 h. The supernatant was removed and the dissolved formazans precipitated with 120 μL of DMSO. Wells without drugs were used as blanks. A plate reader was used to determine the absorbance at 490 nm. The above steps were repeated three times. The IC50 values were defined as the concentration of the compound which gave 50% growth inhibition, and they were calculated using Graph Pad Prism 5. The inhibition rate was calculated using the following formula, where OD is the optical density:% inhibition = 1 − (Sample group OD/Control group OD) × 100%. (1)

[2] = test system: MCF-7 (human mammary cancer); assay: MTT cytotoxicity assay, MCF-7; format: cell-based; details: Homo sapiens, MCF7, 72 h treatment, read-out: Half Maximal Inhibitory Concentration (IC50) MCF-7
Description: as §1

[3] = test system: HepG2 (human hepatocellular carcinoma); assay: MTT cytotoxicity assay, HepG2; format: cell-based; details: for IC50: Homo sapiens, HepG2, MTT, 72 h treatment, read-out: Half Maximal Inhibitory Concentration (IC50) HepG2
Description: as §1

[4] = test system: MDCK (Madin–Darby canine kidney) cells; assay: MTT toxicity evaluation, MDCK; format: cell-based; details: Canis lupus familiaris, MDCK, 72 h treatment, non-tumor cells, read-out: Half Maximal Inhibitory Concentration (IC50) MDCK
Description: as §1

[5] = test system: H9c2 (murine heart myoblast); assay: MTT toxicity evaluation, H9c2; format: cell-based; details: H9c2, 72 h treatment, non-tumor cells, read-out: Half Maximal Inhibitory Concentration (IC50) H9c2
Description: as §1

Cc1ncc(C(=O)OCCOC(=O)[C@]23CCC(C)(C)CC2C2=CCC4[C@@]5(C)CC[C@H](O)[C@@](C)(CO)C5CC[C@@]4(C)[C@]2(C)CC3)nc1C (stereo partly drawn) [Compound 12, 2-(((4aS,6aS,6bR,9R,10S,12aR)-10-Hydroxy-9-(hydroxymethyl)-2,2,6a,6b,9,12a-hexamethyl-1,2,3,4,4a,5,6,6a,6b,7,8,8a,9,10,11,12,12a,12b,13,14b-icosahydropicene-4a-carbonyl)oxy)ethyl-5,6-dimethylpyrazine-2-carboxylate]
IC50 [1]: 10.1 ± 2.47 µM
IC50 [2]: 17.3 ± 0.58 µM
IC50 [3]: 14.42 ± 0.03 µM
IC50 [4]: 18.6 ± 0.71 µM
IC50 [5]: 13.2 ± 0.2 µM
melting point: 146.2 °C

Cc1nc(C)c(C(=O)OCCOC(=O)[C@]23CCC(C)(C)CC2C2=CCC4[C@@]5(C)CC[C@H](O)[C@@](C)(CO)C5CC[C@@]4(C)[C@]2(C)CC3)nc1C (stereo partly drawn) [Compound 13, 2-(((4aS,6aS,6bR,9R,10S,12aR)-10-Hydroxy-9-(hydroxymethyl)-2,2,6a,6b,9,12a-hexamethyl-1,2,3,4,4a,5,6,6a,6b,7,8,8a,9,10,11,12,12a,12b,13,14b-icosahydropicene-4a-carbonyl)oxy)ethyl-3,5,6-trimethylpyrazine-2-carboxylate]
IC50 [1]: 8.15 ± 0.17 µM
IC50 [2]: 18.03 ± 0.18 µM
IC50 [3]: 13.2 ± 0.29 µM
IC50 [4]: 23.22 ± 0.01 µM
IC50 [5]: 10.5 ± 0.61 µM
melting point: 150.6 °C

CC1(C)CC[C@]2(C(=O)OCCCCOC(=O)c3cnccn3)CC[C@]3(C)C(=CCC4[C@@]5(C)CC[C@H](O)[C@@](C)(CO)C5CC[C@]43C)C2C1 (stereo partly drawn) [Compound 14, 4-(((4aS,6aS,6bR,9R,10S,12aR)-10-Gydroxy-9-(hydroxymethyl)-2,2,6a,6b,9,12a-hexamethyl-1,2,3,4,4a,5,6,6a,6b,7,8,8a,9,10,11,12,12a,12b,13,14b-icosahydropicene-4a-carbonyl)oxy)butyl-pyrazine-2-carboxylate]
IC50 [1]: 17.6 ± 2.33 µM
IC50 [2]: 31.23 ± 0.15 µM
IC50 [3]: 7.05 ± 0.17 µM
selective inhibition (SI = IC50 MCF-7/IC50 HepG2) ([3]; ratio of IC50 MCF-7 to IC50 HepG2): 4.43
IC50 [4]: 18.1 ± 0.12 µM
IC50 [5]: 15.9 ± 0.22 µM
melting point: 127 °C

Cc1cncc(C(=O)OCCCCOC(=O)[C@]23CCC(C)(C)CC2C2=CCC4[C@@]5(C)CC[C@H](O)[C@@](C)(CO)C5CC[C@@]4(C)[C@]2(C)CC3)n1 (stereo partly drawn) [Compound 15, 4-(((4aS,6aS,6bR,9R,10S,12aR)-10-Hydroxy-9-(hydroxymethyl)-2,2,6a,6b,9,12a-hexamethyl-1,2,3,4,4a,5,6,6a,6b,7,8,8a,9,10,11,12,12a,12b,13,14b-icosahydropicene-4a-carbonyl)oxy)butyl-6-methylpyrazine-2-carboxylate]
IC50 [1]: 17.98 ± 0.04 µM
IC50 [2]: 19.8 ± 1.27 µM
IC50 [3]: 6.71 ± 0.2 µM
IC50 [4]: 17.1 ± 1.01 µM
IC50 [5]: 17.6 ± 1.85 µM
melting point: 128 °C

Cc1cnc(C(=O)OCCCCOC(=O)[C@]23CCC(C)(C)CC2C2=CCC4[C@@]5(C)CC[C@H](O)[C@@](C)(CO)C5CC[C@@]4(C)[C@]2(C)CC3)cn1 (stereo partly drawn) [Compound 16, 4-(((4aS,6aS,6bR,9R,10S,12aR)-10-Hydroxy-9-(hydroxymethyl)-2,2,6a,6b,9,12a-hexamethyl-1,2,3,4,4a,5,6,6a,6b,7,8,8a,9,10,11,12,12a,12b,13,14b-icosahydropicene-4a-carbonyl)oxy)butyl-5-methylpyrazine-2-carboxylate]
IC50 [1]: 24.8 ± 0.66 µM
IC50 [2]: 28.49 ± 0.28 µM
IC50 [3]: 6.99 ± 0.63 µM
IC50 [4]: 20.12 ± 0.06 µM
IC50 [5]: 14.99 ± 0.12 µM
melting point: 166.1 °C

Cc1nccnc1C(=O)OCCCCOC(=O)[C@]12CCC(C)(C)CC1C1=CCC3[C@@]4(C)CC[C@H](O)[C@@](C)(CO)C4CC[C@@]3(C)[C@]1(C)CC2 (stereo partly drawn) [Compound 17, 4-(((4aS,6aS,6bR,9R,10S,12aR)-10-Hydroxy-9-(hydroxymethyl)-2,2,6a,6b,9,12a-hexamethyl-1,2,3,4,4a,5,6,6a,6b,7,8,8a,9,10,11,12,12a,12b,13,14b-icosahydropicene-4a-carbonyl)oxy)butyl-3-methylpyrazine-2-carboxylate]
IC50 [1]: 19.6 ± 0.22 µM
IC50 [2]: 22.9 ± 0.66 µM
IC50 [3]: 8.15 ± 0.22 µM
IC50 [4]: 20.9 ± 3.03 µM
IC50 [5]: 22.3 ± 0.3 µM
melting point: 145.2 °C

Cc1ncc(C(=O)OCCCCOC(=O)[C@]23CCC(C)(C)CC2C2=CCC4[C@@]5(C)CC[C@H](O)[C@@](C)(CO)C5CC[C@@]4(C)[C@]2(C)CC3)nc1C (stereo partly drawn) [Compound 18, 4-(((4aS,6aS,6bR,9R,10S,12aR)-10-Hydroxy-9-(hydroxymethyl)-2,2,6a,6b,9,12a-hexamethyl-1,2,3,4,4a,5,6,6a,6b,7,8,8a,9,10,11,12,12a,12b,13,14b-icosahydropicene-4a-carbonyl)oxy)butyl-5,6-dimethylpyrazine-2-carboxylate]
IC50 [1]: 16.17 ± 0.15 µM
IC50 [2]: 28.3 ± 0.41 µM
IC50 [3]: 11.9 ± 0.99 µM
IC50 [4]: 16.6 ± 0.22 µM
IC50 [5]: > 30 µM
melting point: 134.7 °C

Cc1nc(C)c(C(=O)OCCCCOC(=O)[C@]23CCC(C)(C)CC2C2=CCC4[C@@]5(C)CC[C@H](O)[C@@](C)(CO)C5CC[C@@]4(C)[C@]2(C)CC3)nc1C (stereo partly drawn) [Compound 19, 4-(((4aS,6aS,6bR,9R,10S,12aR)-10-Hydroxy-9-(hydroxymethyl)-2,2,6a,6b,9,12a-hexamethyl-1,2,3,4,4a,5,6,6a,6b,7,8,8a,9,10,11,12,12a,12b,13,14b-icosahydropicene-4a-carbonyl)oxy)butyl-3,5,6-trimethylpyrazine-2-carboxylate]
IC50 [1]: 12.2 ± 0.4 µM
IC50 [2]: 27.6 ± 0.52 µM
IC50 [3]: 9.06 ± 0.32 µM
IC50 [4]: 16.43 ± 0.04 µM
IC50 [5]: 16.5 ± 0.22 µM
melting point: 110.1 °C

CC1(C)CC[C@]2(C(=O)OCCCCCl)CC[C@]3(C)C(=CCC4[C@@]5(C)CC[C@H](O)[C@@](C)(COC(=O)c6cnccn6)C5CC[C@]43C)C2C1 (stereo partly drawn) [Compound 21, ((3S,4R,6aR,6bS,8aS,14bR)-8a-((4-Chlorobutoxy)carbonyl)-3-hydroxy-4,6a,6b,11,11,14b-hexamethyl-1,2,3,4,4a,5,6,6a,6b,7,8,8a,9,10,11,12,12a,14,14a,14b-icosahydropicen-4-yl)methyl-pyrazine-2-carboxylate]
IC50 [1]: 9.29 ± 0.99 µM
IC50 [2]: 24.98 ± 0.18 µM
IC50 [3]: 7.99 ± 0.12 µM
IC50 [4]: 14.85 ± 0.06 µM
IC50 [5]: 16.68 ± 0.1 µM
melting point: 117.1 °C

Cc1cncc(C(=O)OC[C@@]2(C)C3CC[C@]4(C)C(CC=C5C6CC(C)(C)CC[C@]6(C(=O)OCCCCCl)CC[C@]54C)[C@@]3(C)CC[C@@H]2O)n1 (stereo partly drawn) [Compound 22, ((3S,4R,6aR,6bS,8aS,14bR)-8a-((4-Chlorobutoxy)carbonyl)-3-hydroxy-4,6a,6b,11,11,14b-hexamethyl-1,2,3,4,4a,5,6,6a,6b,7,8,8a,9,10,11,12,12a,14,14a,14b-icosahydropicen-4-yl)methyl 6-methylpyrazine-2-carboxylate]
IC50 [1]: 10.4 ± 0.43 µM
IC50 [2]: 20.5 ± 3.63 µM
IC50 [3]: 7.15 ± 0.43 µM
IC50 [4]: 16.3 ± 1.57 µM
IC50 [5]: 16.26 ± 0.07 µM
melting point: 126.9 °C

Cc1cnc(C(=O)OC[C@@]2(C)C3CC[C@]4(C)C(CC=C5C6CC(C)(C)CC[C@]6(C(=O)OCCCCCl)CC[C@]54C)[C@@]3(C)CC[C@@H]2O)cn1 (stereo partly drawn) [Compound 23, ((3S,4R,6aR,6bS,8aS,14bR)-8a-((4-Chlorobutoxy)carbonyl)-3-hydroxy-4,6a,6b,11,11,14b-hexamethyl-1,2,3,4,4a,5,6,6a,6b,7,8,8a,9,10,11,12,12a,14,14a,14b-icosahydropicen-4-yl)methyl 5-methylpyrazine-2-carboxylate]
IC50 [1]: 18.7 ± 0.32 µM
IC50 [2]: 21.3 ± 1.28 µM
IC50 [3]: 7.17 ± 1.09 µM
IC50 [4]: 19.5 ± 2.47 µM
IC50 [5]: 23.4 ± 0.55 µM
melting point: 175.8 °C

Cc1nccnc1C(=O)OC[C@@]1(C)C2CC[C@]3(C)C(CC=C4C5CC(C)(C)CC[C@]5(C(=O)OCCCCCl)CC[C@]43C)[C@@]2(C)CC[C@@H]1O (stereo partly drawn) [Compound 24, ((3S,4R,6aR,6bS,8aS,14bR)-8a-((4-Chlorobutoxy)carbonyl)-3-hydroxy-4,6a,6b,11,11,14b-hexamethyl-1,2,3,4,4a,5,6,6a,6b,7,8,8a,9,10,11,12,12a,14,14a,14b-icosahydropicen-4-yl)methyl 3-methylpyrazine-2-carboxylate]
IC50 [1]: 22 ± 0.87 µM
IC50 [2]: 17.9 ± 2.8 µM
IC50 [3]: 6.89 ± 0.21 µM
IC50 [4]: 19.3 ± 1.47 µM
IC50 [5]: 27.9 ± 0.62 µM
melting point: 106.1 °C
